Results published in patent US5284872A, “Nitrato alkanoic acid derivatives, methods for their production, pharmaceutical compositions containing the derivatives and medicinal uses thereof” (Schwarz Pharma AG, priority 1990, dated 1994).

Legend:
[1] = tested on: precontracted rat aortic rings; assay: Relaxation of precontracted rat aortic rings; details: for EC50: read-out: EC50 of concentration-dependent relaxation; for potency relative to ISDN (factor): versus isosorbid dinitrate
Excerpt: Compounds SPM 5185 and SPM 5186 caused a similar concentration-dependent relaxation of precontracted rat aortic rings with a potency exceeding that of ISDN (isosorbid dinitrate) by a factor of 5 (EC50 approx. 10^-6 M).

[2] = tested on: normotonous conscious rats and spontaneous hypertensive rats; assay: Peroral application to conscious rats: arterial pressure and heart rate; format: in vivo, rat
conscious beagle dogs = assay: Hemodynamic profile in conscious beagle dogs; format: in vivo, beagle dog; details: for mean arterial and venous pressure: 0.01-1 μmol/kg i.v. and 1-10 μmol/kg p.o.; for arterial vessel compliance / cardiac output: i.v. and p.o.; for effectiveness in reducing arterial and central venous pressure compared with GTN (dose-response curves): versus GTN and IS-5-N
Excerpt: The hemodynamic profile of SPM 5185 and SPM 5186 in direct comparison to classical nitrates was investigated in conscious beagle dogs.

[3] = NO release / rate of NO formation from organic nitrates; details: pH 7.4; for rate of NO formation: 1 mM compound, same conditions as ISDN
[4] = tested on: soluble guanylate cyclase; assay: Stimulation of soluble guanylate cyclase; format: biochemical; details: for stimulation of guanylate cyclase, dependence on cysteine: with or without cysteine
[5] = tested on: normotonous (WKY) and spontaneously hypertensive rats (SHR); assay: Endothelium dependent and independent blood pressure regulation in chronically instrumented conscious rats (acetylcholine and adenosine as test stimuli); format: in vivo, rat; details: single oral application
Excerpt: The effect of a single peroral application of SPM 5186 on endothelium dependent and independent blood pressure regulation was investigated in chronically instrumented conscious rats with acetylcholine and adenosine serving as test stimuli.

| EC50 [1] [nM] | stimulation of soluble guanylate cyclase ([4]; absence of exogenous cysteine) | SMILES | potency relative to ISDN (factor) [1] | heart rate ([2]; normotonous conscious rats) | mean arterial pressure ([2]; normotonous conscious rats) | estimated duration of action (conscious beagle dogs) | mean arterial and venous pressure (conscious beagle dogs) | arterial vessel compliance (conscious beagle dogs) | cardiac output (conscious beagle dogs) | effectiveness in reducing arterial and central venous pressure compared with GTN (dose-response curves) (conscious beagle dogs) | rate of NO formation [3] [nM NO/min] | stimulation of guanylate cyclase, dependence on cysteine [4] | systolic and diastolic arterial blood pressure ([2]; same dose, spontaneous hypertensive rats) | alteration of endogenous dilator mechanisms [5] | spontaneous NO release ([3]; absence of exogenous cysteine, concentration of 1 mM) [nM NO/min] | effect of addition of cysteine on enzyme stimulation ([4]; addition of cysteine) |
| --- | --- | --- | --- | --- | --- | --- | --- | --- | --- | --- | --- | --- | --- | --- | --- | --- |
| ~1000 |  | CCOC(=O)[C@H](CSC(=O)C(C)NC(C)=O)NC(=O)C(C)(C)CO[N+](=O)[O-] (stereo partly drawn) [SPM 5185, N-nitrato-pivaloyl-S-(N-acetyl-alanyl)-L-cysteine ethyl ester] | 5 | only a slight increase | nearly no influence | long-acting nitrates | dose-dependent decrease | enhanced | remained unaffected | even more effective than the most potent classical nitrate GTN | 35.1±5.1 | stimulated guanylate cyclase only in the presence of cysteine |  |  |  |  |
| ~1000 |  | CCOC(=O)[C@H](CSC(=O)CNC(C)=O)NC(=O)C(C)(C)CO[N+](=O)[O-] [SPM 5186, N-nitrato-pivaloyl-S-(N-acetyl-glycyl)-L-cysteine ethyl ester] | 5 |  |  | long-acting nitrates | dose-dependent decrease | enhanced | remained unaffected | even more effective than the most potent classical nitrate GTN | 24.8±5.4 | stimulated guanylate cyclase only in the presence of cysteine | marked decrease | Neither in normotonous (WKY) nor in spontaneously hypertensive rats (SHR) could any significant alteration of endogenous dilator mechanisms be observed |  |  |
|  | stimulated soluble guanylate cyclase | CCOC(=O)[C@H](CS)NC(=O)C(C)(C)CO[N+](=O)[O-] [SPM 3672, nitratopivaline carboxylic acid-L-cysteine ethyl ester, reference compound] |  |  |  |  |  |  |  |  |  |  |  |  | 42.7±9.8 | did not further enhance enzyme stimulation |
